The results in this text go back to PubChem BioAssay (NCI).

Some test systems named below: 786-0 renal; A498 renal; EKVX NSCLC; IGROV1 ovarian; NCI-H460 lung; NCI-H522 lung; SF-539 CNS; SK-MEL-5 melanoma; SNB-75 CNS; U251 CNS.
Holding throughout (experiment): inhibition of tumour cell growth, NCI panel, 48 h

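Compound exposure: 48 hours, 5 concentrations, 96-well plates. GI50 marks 50% less growth. TGI marks complete inhibition of growth.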

Consider `CN(N=O)c1ccc(/C=C/c2ccnc3ccccc23)cc1`, for which the TGI in the experiment on 786-0 renal, in the experiment on A498 renal, with EKVX NSCLC, in the experiment with IGROV1 ovarian, with NCI-H460 lung and in the experiment on NCI-H522 lung was more than 100 µM each time. Besides, the TGI in the experiment with SF-539 CNS, in the experiment with SK-MEL-5 melanoma, in the experiment on SNB-75 CNS and in the experiment on U251 CNS was more than 100 µM throughout.
In the case of `COc1cc(C2c3cc4c(cc3[C@@H](Nc3ccc(F)cc3)C3COC(=O)[C@H]23)OCO4)cc(OC)c1O` (some centres not stated), the GI50 in the experiment with 786-0 renal was 0.567 µM; in the experiment with A498 renal, 878 nM; with NCI-H460 lung, 0.124 µM; with NCI-H522 lung, 0.823 µM; in the experiment with SF-539 CNS it was 708 nM; in the experiment with SK-MEL-5 melanoma, 0.806 µM. In addition, the GI50 in the experiment on SNB-75 CNS is 438 nM; in the experiment with U251 CNS, 0.451 µM. Besides, the TGI with 786-0 renal was found to be 5.26 µM; in the experiment on A498 renal, 7.84 µM; in the experiment with EKVX NSCLC, 12.5 µM; in the experiment with IGROV1 ovarian, 42.2 µM; in the experiment on NCI-H460 lung it was 4.11 µM; in the experiment with NCI-H522 lung, 9.12 µM. In addition, the results for the TGI in the experiment on SF-539 CNS, in the experiment with SK-MEL-5 melanoma and with U251 CNS were 6.02 µM, 8.56 µM and 8.9 µM, respectively.
For the compound `O=C(NCCN1CCOCC1)c1cc2c(Oc3ccc(NC(=O)C4(C(=O)Nc5ccc(F)cc5)CC4)cc3)ccnc2[nH]1`, the GI50 with 786-0 renal was 6.74 µM; with A498 renal, 833 nM; in the experiment on EKVX NSCLC, 10.3 µM; with IGROV1 ovarian, 2.32 µM; in the experiment with NCI-H460 lung, 4.36 µM; with NCI-H522 lung it was 7.69 µM. Besides, the GI50 was 1390 nM in the experiment with SF-539 CNS, 3.03 µM in the experiment with SK-MEL-5 melanoma, 893 nM in the experiment on SNB-75 CNS and 7.87 µM in the experiment on U251 CNS. In addition, the TGI with 786-0 renal is 45.6 µM; in the experiment with A498 renal, 11.8 µM; in the experiment with EKVX NSCLC, more than 100 µM; in the experiment with IGROV1 ovarian, more than 100 µM; in the experiment on NCI-H460 lung, more than 100 µM; in the experiment with NCI-H522 lung it was 28.1 µM. Moreover, the TGI with SF-539 CNS came to 16.5 µM; in the experiment on SK-MEL-5 melanoma, 12.4 µM; in the experiment with SNB-75 CNS it was 9.64 µM; in the experiment with U251 CNS, 34.5 µM.
In the case of `Cc1ccc(C)c(N2CCN(c3ccncc3N)CC2)c1`, the GI50 with 786-0 renal was 20.5 µM; with A498 renal, 3650 nM; in the experiment on EKVX NSCLC it was 10.8 µM; in the experiment on IGROV1 ovarian, 23.9 µM; in the experiment on NCI-H460 lung it was 13.7 µM; in the experiment on NCI-H522 lung, 9.97 µM. For the same compound, the GI50 in the experiment on SF-539 CNS is 15400 nM; in the experiment on SK-MEL-5 melanoma, 11.7 µM; in the experiment with SNB-75 CNS it was 16600 nM; in the experiment on U251 CNS, 4.78 µM. Moreover, the TGI is 58.1 µM with 786-0 renal; 25.9 µM in the experiment on A498 renal; 84.8 µM with EKVX NSCLC; more than 100 µM in the experiment on IGROV1 ovarian; 31.9 µM in the experiment on NCI-H460 lung; 26.7 µM in the experiment on NCI-H522 lung. For the same compound, the TGI in the experiment on SF-539 CNS was 56.9 µM; in the experiment with SK-MEL-5 melanoma it was 24.4 µM; in the experiment with SNB-75 CNS, 59 µM; in the experiment on U251 CNS, 97.4 µM.
In the case of `Nc1nc(SCC#CCCl)c2[nH]cnc2n1`, the GI50 in the experiment on 786-0 renal is 4.3 µM; in the experiment on A498 renal, 1640 nM; in the experiment with EKVX NSCLC it was 3.22 µM; in the experiment on IGROV1 ovarian, 4.58 µM; in the experiment with NCI-H460 lung, 3.62 µM; with NCI-H522 lung, 1.47 µM. The GI50 with SF-539 CNS is 3610 nM; in the experiment on SK-MEL-5 melanoma, 3.11 µM; with SNB-75 CNS, 4230 nM; in the experiment with U251 CNS, 2.97 µM. The TGI with 786-0 renal amounted to 14.9 µM; with A498 renal it was 6.87 µM; in the experiment on EKVX NSCLC, 15.4 µM; in the experiment on IGROV1 ovarian, 23 µM; in the experiment with NCI-H460 lung, 16.7 µM; in the experiment on NCI-H522 lung, 2.95 µM. In addition, the TGI amounted to 15.4 µM with SF-539 CNS, 12.6 µM with SK-MEL-5 melanoma, 17.5 µM in the experiment with SNB-75 CNS and 7.79 µM in the experiment with U251 CNS.
Consider `CN(C(=O)C12C3C4C1C1C2C3C41C#N)C(C)(C)C` (configuration not stated), for which the TGI with 786-0 renal, in the experiment on A498 renal, in the experiment with EKVX NSCLC, in the experiment on IGROV1 ovarian, with NCI-H460 lung and in the experiment on NCI-H522 lung was more than 100 µM each time. Further, the TGI in the experiment on SF-539 CNS, with SK-MEL-5 melanoma, in the experiment on SNB-75 CNS and in the experiment on U251 CNS was more than 100 µM in each case.
In the case of `COc1ccc2c(Cl)cc(NC(=S)Nc3ccccc3)nc2c1`, the TGI with 786-0 renal is 62.7 µM; with A498 renal, 48.1 µM; with EKVX NSCLC, 63.1 µM; with IGROV1 ovarian, 54.3 µM; with NCI-H460 lung, more than 100 µM; in the experiment on NCI-H522 lung, 34.8 µM. Also, the TGI with SF-539 CNS was more than 100 µM; in the experiment with SK-MEL-5 melanoma, more than 100 µM; in the experiment on SNB-75 CNS, 52.1 µM; with U251 CNS, 36.4 µM.
Turning to `C(=C\c1ccc2ccccc2c1Nc1ccccc1)/c1ccccc1`, the TGI in the experiment on 786-0 renal was 33.9 µM; in the experiment with A498 renal, 47.6 µM; with EKVX NSCLC, more than 100 µM; in the experiment on IGROV1 ovarian it was more than 100 µM; in the experiment with NCI-H460 lung, more than 59.2 µM; with NCI-H522 lung it was more than 100 µM. Further, the TGI with SF-539 CNS was more than 100 µM; with SK-MEL-5 melanoma, more than 100 µM; with SNB-75 CNS, 39.9 µM; in the experiment with U251 CNS, more than 64.1 µM.
As for `CN(C)NC(=O)NC12CC3CC(CC(C3)C1)C2`, the TGI with 786-0 renal, in the experiment on A498 renal, with EKVX NSCLC, in the experiment with IGROV1 ovarian, with NCI-H460 lung and in the experiment on NCI-H522 lung was more than 100 µM throughout. Besides, the TGI in the experiment with SF-539 CNS, in the experiment on SK-MEL-5 melanoma, with SNB-75 CNS and with U251 CNS was more than 100 µM in each case.
